One assay deals with mGluR2 (Homo sapiens, UniProt Q14416). The following applies: read-out: IC50 against mGluR2; cited from earlier work.
The target in the next assay is mGluR3 (Homo sapiens, UniProt Q14832). The note with it: read-out: IC50 against mGluR3; cited from earlier work.
The subject of assay [1] is Group I or Group III receptors. The following applies: at sub-mM concentrations; cited from earlier work.
Assay [2] concerns human neural stem cells (hNSCs).
From the text: (§1) Mitogen-free test media with a positive control for neuronal differentiation was used along with basal media without growth factors as a negative control.
(§2) A positive control for neuronal differentiation was used along with basal media without growth factors as a negative control.
(§3) Human neural stem cells (hNSCs) were isolated and grown in monolayer culture, plated, treated with varying concentrations of rosiglitazone and/or N-acetylcysteine (test compounds), and stained with TUJ-1 antibody, as described above. Mitogen-free test media with a positive control for neuronal differentiation was used along with basal media without growth factors as a negative control.
(§4) Human neural stem cells (hNSCs) were isolated and grown in monolayer culture, plated, treated with varying concentrations of ciglitazone and/or N-acetylcysteine (test compounds), and stained with TUJ-1 antibody, as described above. Mitogen-free test media with a positive control for neuronal differentiation was used along with basal media without growth factors as a negative control.
(§5) Human neural stem cells (hNSCs) were isolated and grown in monolayer culture, plated, treated with varying concentrations of pioglitazone and/or N-acetylcysteine (test compounds), and stained with TUJ-1 antibody, as described above. Mitogen-free test media with a positive control for neuronal differentiation was used along with basal media without growth factors as a negative control.
(§6) Human neural stem cells (hNSCs) were isolated and grown in monolayer culture, plated, treated with varying concentrations of troglitazone and/or N-acetylcysteine (test compounds), and stained with TUJ-1 antibody, as described above. Mitogen-free test media with a positive control for neuronal differentiation was used along with basal media without growth factors as a negative control.
(§7) The presence of synergy was determined by use of a combination index (CI). […] The CI is a quantitative measure of the nature of drug interactions, comparing the EC50's of two compounds, when each is assayed alone, to the EC50 of each compound when assayed in combination. The combination index (CI) is equal to the following formula:
(§8) where C1 and C2 are the concentrations of a first and a second compound, respectively, resulting in 50% activity in neuronal differentiation when assayed in combination; and IC1 and IC2 are the concentrations of each compound resulting in 50% activity when assayed independently.
In assay [3] the test system is KA, AMPA, and NMDA iGlu receptors. The note with it: cited from earlier work.
In a further assay the test system is mGlu7 and mGlu8. The note with it: at higher concentrations (e.g., above 1 μM); cited from earlier work.
The target of the next assay is human mGlu2 receptors (Homo sapiens, UniProt Q14416). The following applies: low nanomolar range, e.g. below about 10 nM, or below about 5 nM; read-out: EC50 against human mGlu2 receptors in vitro; cited from earlier work.
A further assay deals with human mGlu3 receptors (Homo sapiens, UniProt Q14832). The following applies: low nanomolar range, e.g. below about 10 nM, or below about 5 nM; read-out: EC50 against human mGlu3 receptors in vitro; cited from earlier work.
The subject of assay [4] is human neural stem cells (hNSCs). In words: Neuronal differentiation of human neural stem cells (TUJ-1 staining). The following applies: read-out: EC50, neuronal differentiation, extrapolated, agent alone, extrapolated based on the data.
From the text: as §1, §2, §3, §4, §5, §6, §7, §8

Where two headings read alike, the source gives them in different places.

human mGlu3 receptors, sequence (Q14832 23-879): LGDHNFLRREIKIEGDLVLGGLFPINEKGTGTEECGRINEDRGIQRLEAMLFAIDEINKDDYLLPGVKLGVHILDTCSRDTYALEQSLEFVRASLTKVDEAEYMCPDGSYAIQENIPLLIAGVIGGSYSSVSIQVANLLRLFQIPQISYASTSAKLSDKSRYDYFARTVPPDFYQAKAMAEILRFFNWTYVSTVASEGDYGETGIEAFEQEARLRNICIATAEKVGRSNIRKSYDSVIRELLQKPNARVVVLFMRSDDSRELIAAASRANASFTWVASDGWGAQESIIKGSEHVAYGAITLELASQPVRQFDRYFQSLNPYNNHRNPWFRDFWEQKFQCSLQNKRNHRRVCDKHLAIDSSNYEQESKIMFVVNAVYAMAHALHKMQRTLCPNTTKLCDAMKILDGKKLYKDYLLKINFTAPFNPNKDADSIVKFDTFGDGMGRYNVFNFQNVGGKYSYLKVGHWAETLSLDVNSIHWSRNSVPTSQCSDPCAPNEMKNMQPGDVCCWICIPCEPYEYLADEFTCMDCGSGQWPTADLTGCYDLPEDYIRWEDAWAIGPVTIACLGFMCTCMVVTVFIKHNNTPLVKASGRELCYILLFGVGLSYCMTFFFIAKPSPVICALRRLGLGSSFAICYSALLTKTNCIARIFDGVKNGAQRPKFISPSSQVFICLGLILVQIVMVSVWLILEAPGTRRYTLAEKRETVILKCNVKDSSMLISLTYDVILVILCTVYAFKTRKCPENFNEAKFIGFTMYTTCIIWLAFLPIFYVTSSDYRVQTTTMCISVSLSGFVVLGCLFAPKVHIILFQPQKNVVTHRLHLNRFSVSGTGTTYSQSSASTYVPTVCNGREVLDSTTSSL
mGluR3, sequence (Q14832 23-879): as above
human mGlu2 receptors, sequence (Q14416 19-872): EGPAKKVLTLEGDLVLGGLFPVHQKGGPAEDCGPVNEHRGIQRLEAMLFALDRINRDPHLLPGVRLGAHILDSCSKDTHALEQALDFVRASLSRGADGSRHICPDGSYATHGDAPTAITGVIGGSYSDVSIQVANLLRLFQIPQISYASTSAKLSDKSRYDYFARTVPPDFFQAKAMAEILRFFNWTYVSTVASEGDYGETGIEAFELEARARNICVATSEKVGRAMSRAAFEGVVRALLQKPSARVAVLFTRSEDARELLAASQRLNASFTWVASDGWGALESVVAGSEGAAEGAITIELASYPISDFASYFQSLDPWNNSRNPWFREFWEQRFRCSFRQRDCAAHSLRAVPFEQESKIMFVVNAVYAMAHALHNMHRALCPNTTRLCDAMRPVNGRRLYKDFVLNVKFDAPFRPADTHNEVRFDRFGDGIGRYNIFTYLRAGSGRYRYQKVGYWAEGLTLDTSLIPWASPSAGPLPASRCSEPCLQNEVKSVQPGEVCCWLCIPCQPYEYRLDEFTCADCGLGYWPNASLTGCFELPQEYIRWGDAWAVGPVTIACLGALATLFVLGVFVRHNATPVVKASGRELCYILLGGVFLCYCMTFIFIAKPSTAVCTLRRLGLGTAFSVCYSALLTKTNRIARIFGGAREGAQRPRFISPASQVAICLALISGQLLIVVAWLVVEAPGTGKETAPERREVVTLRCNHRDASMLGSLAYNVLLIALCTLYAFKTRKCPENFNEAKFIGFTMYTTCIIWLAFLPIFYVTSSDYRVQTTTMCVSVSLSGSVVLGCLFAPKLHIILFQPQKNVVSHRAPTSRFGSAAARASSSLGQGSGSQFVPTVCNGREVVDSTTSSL
mGluR2, sequence (Q14416 19-872): as above

For `NC1(C(=O)O)CCc2cc(P(=O)(O)O)ccc21` (racemic) [APICA, (RS)-1-amino-5-phosphonoindan-1-carboxylic acid], the IC50 on mGluR2 and at mGluR3 was approximately 30 µM each time. In addition, the “activity against Group I or Group III receptors” value in assay [1] is given as “no appreciable activity”.

`CCc1ccc(CCOc2ccc(CC3SC(=O)NC3=O)cc2)nc1` (racemic) [pioglitazone, (RS)-5-(4-[2-(5-ethylpyridin-2-yl)ethoxy]benzyl)-thiazolidine-2,4-dione]: the EC50 in assay [2] came to 0.348 µM.

The molecule `CN(CCOc1ccc(CC2SC(=O)NC2=O)cc1)c1ccccn1` (racemic) [rosiglitazone, (RS)-5-[4-(2-[methyl(pyridin-2-yl)amino]ethoxy)-benzyl]thiazolidine-2,4-dione] yielded an EC50 in assay [2] of 1.8 µM.

`N[C@](CC1c2ccccc2Oc2ccccc21)(C(=O)O)[C@H]1C[C@@H]1C(=O)O` [LY341495, (2S)-2-amino-2-(1S,2S-2-carboxycycloprop-1-yl)-3-(xanth-9-yl) propanoic acid]: in assay [3], the “activity against KA, AMPA, and NMDA iGlu receptors” value is “substantially inactive”. The “activity against mGlu7 and mGlu8” value in the assay on mGlu7 and mGlu8 is “antagonist activity”.

`N[C@@]1(C(=O)O)CO[C@H]2[C@H](C(=O)O)[C@H]21` [LY379268, (−)-2-oxa-4-aminobicyclohexane-4,6-dicarboxylic acid]: the concentration giving a half-maximal response (EC50) at human mGlu2 receptors and at human mGlu3 receptors was less than 0.01 µM each time.

In assay [2], `CC(=O)N[C@@H](CS)C(=O)O` [NAC, N-acetyl-L-cysteine] registered an EC50 of 5.55 µM.

In the case of `O=C(Nc1ccncc1)c1cc([N+](=O)[O-])ccc1Cl` [T0070907], the EC50 in [4] is 5.4 µM.

Consider `CC1(COc2ccc(CC3SC(=O)NC3=O)cc2)CCCCC1` (stereo not shown) [ciglitazone, 5-{4-[(1-methylcyclohexyl)methoxy]benzyl}-1,3-thiazolidine-2,4-dione], for which, in assay [2], the EC50 is 0.1 µM.

In the case of `CC(C)(Oc1ccc(C2CC2(Cl)Cl)cc1)C(=O)O` (stereo not shown) [ciprofibrate], it took 2.1 µM to reach a half-maximal effect in assay [2] (EC50).

The molecule `CCOC(=O)C(C)(C)Oc1ccc(Cl)cc1` [clofibrate] returned an EC50 in assay [2] of 2.6 µM.

Consider `Nc1c2c(nc3ccccc13)CCCC2` [tacrine], for which the EC50 in [2] is 12.6 µM.

On to `Cc1c(C)c2c(c(C)c1O)CCC(C)(COc1ccc(CC3SC(=O)NC3=O)cc1)O2` (stereo not shown) [troglitazone, 5-(4-[(6-hydroxy-2,5,7,8-tetramethylchroman-2-yl)methoxy]benzyl)thiazolidine-2,4-dione], for which a half-maximal response in assay [2] (EC50) required 10 µM.

For orientation: IC50 means the concentration that gives 50% inhibition. By EC50 is commonly meant the concentration that produces a half-maximal response.

Source of the values: patent US20100184806A1, “MODULATION OF NEUROGENESIS BY PPAR AGENTS” (BrainCells, Inc., priority 2006, published 2010).
